Experimental data reported in US7745446B2, “Pyrazolo[1,5-c]pyrimidines” (Bayer Schering Pharma Aktiengesellschaft, priority 2004, dated 2010).

Tests used:
[1] = test system: MDA-MB-468 cells; assay: Cellular proliferation/cytotoxicity assay (Alamar Blue), MDA-MB-468; conditions: Homo sapiens, MDA-MB-468, 48 h, read-out: Anti-proliferative/cytotoxic activity: IC50 MDA468
Description: The anti-proliferative activity of the compounds as described herein, is evaluated using MCF7 and MDA-MB-468 (ATCC HTB-22 and HTB-132) cell lines and the Alamar Blue (Resazurin) cell viability assay (O'Brien et al. Eur J Biochem 267, 5421-5426, 2000). Resazurin is reduced to the fluorescent resorufin by cellular dehydrogenase activity, correlating with viable, proliferating cells. Test compounds are dissolved as 10 mM solutions in DMSO and subsequently diluted. MCF7 or MDA-MB-434 cells were seeded into 96 well flat bottom plates at a density of 10000 cells/well (MCF7) or 5000 cells/well (MDA-MB-468) in a volume of 200 μl/well. 24 hours after seeding, 1 μl each of the compound dilutions are added into each well of the 96 well plates. Each compound dilution is tested as at least as duplicates. Wells containing untreated control cells were filled with 200 μl DMEM containing 0.5% v:v DMSO. The cells are then incubated with the substances for 48 hours at 37° C. in a humidified atmosphere containing 5% carbon dioxide. To determine cell viability, 20 μl of a Resazurin solution (Sigma; 90 mg/l) are added. After 4 hours incubation at 37° C. the fluorescence is measured at an extinction of 544 nm and an emission of 590 nm (Wallac Victor2; Perkin Elmer, USA). For the calculation of the cell viability the emission value from untreated cells is set as 100% viability and the emission rates of treated cells are set in relation to the values of untreated cells. Viabilities are expressed as % values. The corresponding IC50 values of the compounds for cytotoxic activity are determined from the concentration-effect curves by means of non-linear regression. The analysis of the data is performed using a biostatistical program (GraphPad Prism, USA).

[2] = biological target: T1, full-length Akt1 (inactive) (Homo sapiens, UniProt P31749); assay: Biochemical Akt1 assay (full-length Akt1 inactive, PDK1-dependent activation, IMAP); conditions: PDK1 and PIP3 vesicles, 50 μM ATP; read-out: Inhibition of Akt1 activation (full-length Akt1, inactive): IC50
T1 construct: recombinant full-length human Akt1 a containing N-terminal His6 tag; His6 (N); purchased Upstate, UK #14-279; host or cells: baculovirus infected Sf21 insect cells
Description: The enzyme is purified using Ni2+/NTA-agarose (Upstate, UK; #14-279).
The enzyme is purified using Ni2+/NTA-agarose.
PDK1-dependent activation and subsequent enzymatic activity of Akt1: Activity of purified human Akt1 is routinely measured in an assay in which the enzyme is first activated by PDK1 in the presence of phosphatidylinositol-3,4,5-triphosphate (PIP3). Once activated, Akt1-dependent phosphorylation of a fluorescence labelled peptide substrate is measured by fluorescence polarisation using the IMAP technology (Molecular Devices).
The phospholipids are prepared as follows: 5 mg DOPC/DOPS are solved in 200 μl 10 mM Tris (pH 7.4) and 300 μg PIP3 are resuspended in 950 μl 10 mM Tris (pH 7.4) by pipetting. 950 μl solved PIP3 are mixed with 50 μl solved DOPC/DOPS and incubated for 2 h at a temperature below 20° C. Then the mixture is subjected to sonification for 30 min. at max. power until a translucent phopholipid vesicle preparation is obtained. Aliquots of the vesicle suspension are frozen at -80° C. until needed, likewise the solved DOPC/DOPS.
Assays are performed in 384-well plates. Incubations are carried out for 60 min. at room temperature. The reaction buffer mixture contained in a final volume of 25 μl: 10 mM Tris pH 7,4, 10 mM MgCl2. 1 mM DTT, and 0.1 mg/ml BSA. In contrast the activation buffer contained: 50 ng/well Akt1, 20 ng/well PDK1, 1.25 μM peptide substrat, 50 μM ATP, and phospholipid vesicles (1:20). Test compounds are added from stock solutions in DMSO before activation of Akt1 by PDK1. After the incubation the beads (IMAP binding reagent; Molecular Devices; 1:167) are added and the fluorescence polarization is measured (excitation 485 nm, emission 530 nm).

[3] = test system: phosphorylated GSK3 (Ser9) in MCF7 cells; assay: Cellular pGSK3 assay (pGSK3-ELISA); assay type: cell-based; conditions: Homo sapiens, 48 h, read-out: GSK3 inhibition (pGSK3-ELISA): IC50
Description: In order to study the cellular activity of the compounds according to the invention, an ELISA-based assay has been established for the phosphorylated glycogen synthetase kinase 3, GSK3. The assay is based on a solid phase sandwich ELISA that detects endogenous levels of the phosphorylated GSK3 (BioSource International, Inc.; Catalog #KH00461). A phospho-GSK3 (Ser9) antibody has been coated onto the microwells. After incubation with cell lysates, the coated antibody captures the phosphorylated GSK3 protein. Following extensive washing, GSK3 polyclonal antibody is added to detect the captured phospho-GSK3 protein. […] (anti-rabbit IgG-HRP) is then used to recognize the bound detection antibody. After the second incubation and washing to remove all the excess anti-rabbit IgG-HRP, a substrate solution is added, which is acted upon by the bound enzyme to produce color. The intensity of this colored product is directly proportional to the concentration of […] [pS9] present in the original specimen.
MCF7 cells (ATCC HTB-22) are seeded into 96 well plates at a density of 10000 cells/well.
Cells are harvested and lysed with brief vortexing in cell extraction buffer (10 mM Tris, pH 7.4, 100 mM NaCl, 1 mM EDTA, 1 mM EGTA, 1 mM NaF, 20 mM Na4P2O7, 2 mM Na3VO4, 1% Triton X-100, 10% glycerol, 0.1% SDS, 0.5% deoxycholate, 1 mM PMSF). The lysate are centrifuged for 10 minutes at 4° C. and the supernatant transferred to a new tube. 50 μl of sample diluent (standard diluent buffer, Biosource) are added and 100 μl of cell lysate transferred into the tube and vortexed. 100 μl of each diluted cell lysate are added to the appropriate well (phospho-GSK3 (Ser9) antibody coated microwells; BioSource) and incubated for 3 h at room temperature. The plates are washed 4 times with 1× wash buffer (Biosource). […] The absorbance is measured at 450 nm (Wallac Victor2; Perkin Elmer, USA) within 30 minutes after adding Stop solution. The analysis of the data is performed using a statistical program (Microsoft Excel, USA) and the inhibition of pGSK3 phosphorylation is determined.

T1 sequence (P31749 whole entry): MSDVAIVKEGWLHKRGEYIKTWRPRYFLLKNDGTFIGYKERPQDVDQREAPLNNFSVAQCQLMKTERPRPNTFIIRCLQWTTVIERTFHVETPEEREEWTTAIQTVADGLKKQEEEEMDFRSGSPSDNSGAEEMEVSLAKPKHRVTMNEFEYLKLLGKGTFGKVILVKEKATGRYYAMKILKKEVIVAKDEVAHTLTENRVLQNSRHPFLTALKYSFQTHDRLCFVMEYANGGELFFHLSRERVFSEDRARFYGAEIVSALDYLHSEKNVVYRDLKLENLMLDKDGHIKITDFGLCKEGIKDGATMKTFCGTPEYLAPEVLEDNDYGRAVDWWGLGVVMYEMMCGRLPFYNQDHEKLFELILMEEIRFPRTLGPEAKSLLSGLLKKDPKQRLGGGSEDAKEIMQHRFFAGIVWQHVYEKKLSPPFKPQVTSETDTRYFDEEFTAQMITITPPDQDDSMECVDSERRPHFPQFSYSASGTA

| SMILES | IC50 [1] [µM] | IC50 [2] [µM] | IC50 [3] [µM] |
| --- | --- | --- | --- |
| NCCCC(=O)Nc1ccc(Nc2nc(-c3cccc4c3oc3ccccc34)cc3ccnn23)cc1 [Example 24, 4-Amino-N-[4-(5-dibenzofuran-4-yl-pyrazolo[1,5-c]pyrimidin-7-ylamino)-phenyl]-butyramide] | ≤ 13.6 | ≤ 5 | < 10 |
| COc1cccc(-c2ccc(-c3cc4ccnn4c(Nc4ccc(NC(=O)c5ccc(CN)cc5)cc4)n3)cc2)c1 [Example 59, 4-Aminomethyl-N-{4-[5-(3′-methoxy-biphenyl-4-yl)-pyrazolo[1,5-c]pyrimidin-7-ylamino]-phenyl}-benzamide] | ≤ 13.6 | ≤ 5 | < 10 |
| O=C(Nc1cccc(Nc2nc(-c3cccc4c3oc3ccccc34)cc3ccnn23)c1)c1ccc2c(c1)CCNC2 [Example 63, 1,2,3,4-Tetrahydro-isoquinoline-6-carboxylic acid [3-(5-dibenzofuran-4-yl-pyrazolo[1,5-c]pyrimidin-7-ylamino)-phenyl]-amide] | ≤ 13.6 | ≤ 5 | < 10 |
| COc1cccc(-c2ccc(-c3cc4c(Br)cnn4c(Nc4ccc(NC(=O)c5ccc(CN)cc5)cc4)n3)cc2)c1 [Example 87, 4-Aminomethyl-N-{4-[3-bromo-5-(3′-methoxy-biphenyl-4-yl)-pyrazolo[1,5-c]pyrimidin-7-ylamino]-phenyl}-benzamide] | ≤ 13.6 | ≤ 5 |  |
